Measured values reported in patent publication US20150299143A1, “SUBSTITUTED TRIAZOLE AND IMIDAZOLE COMPOUNDS” (HOFFMANN-LA ROCHE INC., priority 2012, published 2015).

Columns and labels:
β 2c/2i (trypsin-like) = experiment: Cell-Based Proteasome subunit activity/selectivity assay, β2c/2i, substrate (KQL)2Rh110; conditions: Ramos cells; substrate (KQL)2Rh110 (β2c/2i); highest concentration tested 20 μM
Method in brief: (§1)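 Subunit activity in cultured cells read with subunit-selective fluorogenic Rh110 substrates: (LLE)2 for β1c, (PAL)2 for β1i, (KQL)2 for β2c/2i, (WLA)2 for β5c. Cells exposed to 4-fold serially diluted compound (top 20 μM) 30 min at 37 °C, then substrate 120 min at room temperature; fluorescence 500/519 nm.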

β 1c (caspase-like) = target: T1, β 1c (caspase-like) (Homo sapiens, UniProt P28072+Q99436); experiment: Cell-Based Proteasome subunit activity/selectivity assay, β1c, substrate (LLE)2Rh110; conditions: Ramos cells; substrate (LLE)2Rh110 (β1c); highest concentration tested 20 μM; read-out: Ic50:ramos:rh110-(lle)2
T1 construct: protease activity associated with the proteasome complex in cultured cells; endogenous in cells; host or cells: Ramos cells
Method in brief: as §1

[1] = target: T2, β5c (chymotrypsin-like activity) (Homo sapiens, UniProt P20618+P28074); experiment: Cell-Based Proteasome subunit activity/selectivity assay, β5c, substrate (WLA)2Rh110; conditions: Ramos cells; substrate (WLA)2Rh110 (β5c); highest concentration tested 20 μM; read-out: Ic50:ramos:rh110-(wla)2
T2 construct: protease activity associated with the proteasome complex in cultured cells; endogenous in cells; host or cells: Ramos cells
Method in brief: as §1

β 1i (caspase-like) = target: T3, β 1i (caspase-like) (Homo sapiens, UniProt P28065+P40306); experiment: Cell-Based Proteasome subunit activity/selectivity assay, β1i, substrate (PAL)2Rh110; conditions: Ramos cells; substrate (PAL)2Rh110 (β1i); highest concentration tested 20 μM; read-out: Ic50:ramos:rh110-(pal)2
T3 construct: protease activity associated with the proteasome complex in cultured cells; endogenous in cells; host or cells: Ramos cells
Method in brief: as §1

[2] = target: T4, β 5i (chymotrypsin-like activity) (Homo sapiens, UniProt P20618+P28062); experiment: Cell-Based Proteasome subunit activity/selectivity assay, β5i, substrate (ANW)2Rh110; conditions: Ramos cells; substrate (ANW)2Rh110 (β5i); highest concentration tested 20 μM; read-out: Ic50:ramos:ac-(anw)2-r110
T4 construct: protease activity associated with the proteasome complex in cultured cells; endogenous in cells; host or cells: Ramos cells
Method in brief: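 Cell-based fluorogenic assay measuring chymotrypsin-like β5i proteasome activity using the substrate (ANW)2Rh110. Cultured cells received 0.5 μl of 100× 4-fold serial diluted compounds or DMSO per well, were incubated 30 minutes at 37° C, then equilibrated 15 minutes at room temperature. After shaking one minute @ 700 rpm and 120 min room-temperature incubation, fluorescence was read at 500 nm excitation/519 nm emission on an Envision reader.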

`COc1ccc(C(=O)NCCn2cc(C(=O)NC(C#N)c3ccc(C)cc3)nn2)c(OC)c1OC` (stereo not shown) [Example 62, 1-[2-(2,3,4-Trimethoxy-benzoylamino)-ethyl]-1H-[1,2,3]triazole-4-carboxylic acid (cyano-p-tolyl-methyl)-amide] was tested, and the IC50 (β 2c/2i (trypsin-like)) was ≥ 20 µM, the IC50 (β 1c (caspase-like)) was ≥ 20 µM and the IC50 [1] was ≥ 20 µM. For the same molecule, the IC50 (β 1i (caspase-like)) was ≥ 20 µM and the IC50 [2] was 0.404 µM.
With `CCc1ccc(C(C#N)NC(=O)c2cn(CCNC(=O)c3ccc(OC)c(OC)c3OC)nn2)nc1` (stereo not shown) [Example 63, 1-[2-(2,3,4-Trimethoxy-benzoylamino)-ethyl]-1H-[1,2,3]triazole-4-carboxylic acid [cyano-(5-ethyl-pyridin-2-yl)-methyl]-amide] the IC50 (β 2c/2i (trypsin-like)) was ≥ 20 µM, the IC50 (β 1c (caspase-like)) was ≥ 20 µM and the IC50 [1] was ≥ 20 µM. The IC50 (β 1i (caspase-like)) was ≥ 20 µM and the IC50 [2] was 2.49 µM.
With `CCCc1ccc(C(C#N)NC(=O)c2cn(CCNC(=O)c3ccc(OC)c(OC)c3OC)nn2)cc1` (stereo not shown) [Example 64, 1-[2-(2,3,4-Trimethoxy-benzoylamino)-ethyl]-1H-[1,2,3]triazole-4-carboxylic acid [cyano-(4-propyl-phenyl)-methyl]-amide] the IC50 (β 2c/2i (trypsin-like)) was ≥ 20 µM, the IC50 (β 1c (caspase-like)) was 9.68 µM and the IC50 [1] was 8.31 µM. It also gave an IC50 (β 1i (caspase-like)) of 10.1 µM and an IC50 [2] of 0.127 µM.
For `COc1ccc(C(C#N)NC(=O)c2cn(CCNC(=O)c3ccc(OC)c(OC)c3OC)nn2)cn1` (stereo not shown) [Example 65, 1-[2-(2,3,4-Trimethoxy-benzoylamino)-ethyl]-1H-[1,2,3]triazole-4-carboxylic acid [cyano-(6-methoxy-pyridin-3-yl)-methyl]-amide], the IC50 (β 2c/2i (trypsin-like)) was ≥ 20 µM, the IC50 (β 1c (caspase-like)) was 17.8 µM and the IC50 [1] was ≥ 20 µM. For the same molecule, the IC50 (β 1i (caspase-like)) was ≥ 20 µM and the IC50 [2] was 0.947 µM.
With `COc1ccc(C(=O)NCCn2cc(C(=O)NC(C#N)c3ccc4ccsc4c3)nn2)c(OC)c1OC` (stereo not shown) [Example 66, 1-[2-(2,3,4-Trimethoxy-benzoylamino)-ethyl]-1H-[1,2,3]triazole-4-carboxylic acid (benzo[b]thiophen-6-yl-cyano-methyl)-amide] the IC50 (β 2c/2i (trypsin-like)) was ≥ 20 µM, the IC50 (β 1c (caspase-like)) was ≥ 20 µM and the IC50 [1] was ≥ 20 µM. The IC50 (β 1i (caspase-like)) was ≥ 20 µM and the IC50 [2] was 0.795 µM.
In the case of `COc1ccc(C(=O)NCCn2cc(C(=O)NC(C#N)c3ccc(OC(C)C)cc3)nn2)c(OC)c1OC` (stereo not shown) [Example 67, 1-[2-(2,3,4-Trimethoxy-benzoylamino)-ethyl]-1H-[1,2,3]triazole-4-carboxylic acid [cyano-(4-isopropoxy-phenyl)-methyl]-amide], the IC50 (β 2c/2i (trypsin-like)) is reported as ≥ 20 µM, the IC50 (β 1c (caspase-like)) is reported as ≥ 20 µM and the IC50 [1] is reported as ≥ 20 µM. The IC50 (β 1i (caspase-like)) was ≥ 20 µM and the IC50 [2] was 5.49 µM.
For `COc1ccc(C(=O)NCCn2cc(C(=O)NC(C#N)c3ccc(Cl)cc3)nn2)c(OC)c1OC` (stereo not shown) [Example 68, 1-[2-(2,3,4-Trimethoxy-benzoylamino)-ethyl]-1H-[1,2,3]triazole-4-carboxylic acid [(4-chloro-phenyl)-cyano-methyl]-amide], the IC50 (β 2c/2i (trypsin-like)) was ≥ 20 µM, the IC50 (β 1c (caspase-like)) was ≥ 20 µM and the IC50 [1] was 16.8 µM. For the same molecule, the IC50 (β 1i (caspase-like)) was ≥ 20 µM and the IC50 [2] was 0.327 µM.
With `CC1=C(C(=O)NCCn2cc(C(=O)NC(C#N)c3ccc(C(F)(F)F)cc3)nn2)Cc2ccccc21` (stereo not shown) [Example 70, 1-{2-[(3-Methyl-1H-indene-2-carbonyl)-amino]-ethyl}-1H-[1,2,3]triazole-4-carboxylic acid [cyano-(4-trifluoromethyl-phenyl)-methyl]-amide] the IC50 (β 2c/2i (trypsin-like)) was ≥ 20 µM, the IC50 (β 1c (caspase-like)) was ≥ 20 µM and the IC50 [1] was 10.8 µM. The IC50 (β 1i (caspase-like)) was ≥ 20 µM and the IC50 [2] was 0.445 µM.
With `COc1cc(OC(F)(F)F)ccc1C(=O)NCCn1cc(C(=O)NC(C#N)c2ccc(C(F)(F)F)cc2)nn1` (stereo not shown) [Example 71, 1-[2-(2-Methoxy-4-trifluoromethoxy-benzoylamino)-ethyl]-1H-[1,2,3]triazole-4-carboxylic acid [cyano-(4-trifluoromethyl-phenyl)-methyl]-amide] the IC50 (β 2c/2i (trypsin-like)) was ≥ 20 µM, the IC50 (β 1c (caspase-like)) was ≥ 20 µM and the IC50 [1] was ≥ 20 µM. For the same molecule, the IC50 (β 1i (caspase-like)) was ≥ 20 µM and the IC50 [2] was 5.59 µM.
In the case of `COc1cc(C(F)(F)F)ccc1C(=O)NCCn1cc(C(=O)NC(C#N)c2ccc(C(F)(F)F)cc2)nn1` (stereo not shown) [Example 72, 1-[2-(2-Methoxy-4-trifluoromethyl-benzoylamino)-ethyl]-1H-[1,2,3]triazole-4-carboxylic acid [cyano-(4-trifluoromethyl-phenyl)-methyl]-amide], the IC50 (β 2c/2i (trypsin-like)) is reported as ≥ 20 µM, the IC50 (β 1c (caspase-like)) is reported as ≥ 20 µM and the IC50 [1] is reported as ≥ 20 µM. The IC50 (β 1i (caspase-like)) was ≥ 20 µM and the IC50 [2] was 0.524 µM.
For `N#CC(NC(=O)c1cn(CCNC(=O)c2ccc(C(F)(F)F)cc2F)nn1)c1ccc(C(F)(F)F)cc1` (stereo not shown) [Example 73, 1-[2-(2-Fluoro-4-trifluoromethyl-benzoylamino)-ethyl]-1H-[1,2,3]triazole-4-carboxylic acid [cyano-(4-trifluoromethyl-phenyl)-methyl]-amide], the IC50 (β 2c/2i (trypsin-like)) was ≥ 20 µM, the IC50 (β 1c (caspase-like)) was ≥ 20 µM and the IC50 [1] was ≥ 20 µM. The IC50 (β 1i (caspase-like)) was ≥ 20 µM and the IC50 [2] was 0.184 µM.
`COc1ccc(C(=O)NCCn2cc(C(=O)NC(C#N)c3ccc(C(F)(F)F)cc3)nn2)c(F)c1` (stereo not shown) [Example 74, 1-[2-(2-Fluoro-4-methoxy-benzoylamino)-ethyl]-1H-[1,2,3]triazole-4-carboxylic acid [cyano-(4-trifluoromethyl-phenyl)-methyl]-amide] was tested, and the IC50 (β 2c/2i (trypsin-like)) was ≥ 20 µM, the IC50 (β 1c (caspase-like)) was ≥ 20 µM and the IC50 [1] was ≥ 20 µM. For the same molecule, the IC50 (β 1i (caspase-like)) was ≥ 20 µM and the IC50 [2] was 1.74 µM.
In the case of `Cc1ccc(C(=O)NCCn2cc(C(=O)NC(C#N)c3ccc(C(F)(F)F)cc3)nn2)c(F)c1` (stereo not shown) [Example 75, 1-[2-(2-Fluoro-4-methyl-benzoylamino)-ethyl]-1H-[1,2,3]triazole-4-carboxylic acid [cyano-(4-trifluoromethyl-phenyl)-methyl]-amide], the IC50 (β 2c/2i (trypsin-like)) is reported as ≥ 20 µM, the IC50 (β 1c (caspase-like)) is reported as ≥ 20 µM and the IC50 [1] is reported as 19.9 µM. The IC50 (β 1i (caspase-like)) was ≥ 20 µM and the IC50 [2] was 1.39 µM.
`N#CC(NC(=O)c1cn(CCNC(=O)c2ccc(C(F)(F)F)cc2F)nn1)c1ccc(C2CC2)cc1` (stereo not shown) [Example 76, 1-[2-(2-Fluoro-4-trifluoromethyl-benzoylamino)-ethyl]-1H-[1,2,3]triazole-4-carboxylic acid [cyano-(4-cyclopropyl-phenyl)-methyl]-amide] was tested, and the IC50 (β 2c/2i (trypsin-like)) was ≥ 20 µM, the IC50 (β 1c (caspase-like)) was ≥ 20 µM and the IC50 [1] was ≥ 20 µM. For the same molecule, the IC50 (β 1i (caspase-like)) was ≥ 20 µM and the IC50 [2] was 0.05 µM.
With `COc1ccc(C(=O)CNC(=O)c2cn(CCNC(=O)c3ccc(OC)c(OC)c3OC)nn2)cc1` [Example 77, 1-[2-(2,3,4-Trimethoxy-benzoylamino)-ethyl]-1H-[1,2,3]triazole-4-carboxylic acid [2-(4-methoxy-phenyl)-2-oxo-ethyl]-amide] the IC50 (β 2c/2i (trypsin-like)) was ≥ 20 µM, the IC50 (β 1c (caspase-like)) was ≥ 20 µM and the IC50 [1] was ≥ 20 µM. The IC50 (β 1i (caspase-like)) was ≥ 20 µM and the IC50 [2] was 8.75 µM.
For `O=C(CCNC(=O)c1cn(CCNC(=O)c2ccc(C(F)(F)F)cc2F)nn1)c1ccccc1` [Example 78], the IC50 (β 2c/2i (trypsin-like)) was ≥ 20 µM, the IC50 (β 1c (caspase-like)) was ≥ 20 µM and the IC50 [1] was 14.3 µM. For the same molecule, the IC50 (β 1i (caspase-like)) was ≥ 20 µM and the IC50 [2] was 0.176 µM.
In the case of `CC(CCc1ccccc1)NC(=O)c1cn(CCNC(=O)c2ccc(C(F)(F)F)cc2F)nn1` (stereo not shown) [Example 79, 1-[2-(2-Fluoro-4-trifluoromethyl-benzoylamino)-ethyl]-1H-[1,2,3]triazole-4-carboxylic acid (1-methyl-3-phenyl-propyl)-amide], the IC50 (β 2c/2i (trypsin-like)) is reported as ≥ 20 µM, the IC50 (β 1c (caspase-like)) is reported as ≥ 20 µM and the IC50 [1] is reported as 3.39 µM. The IC50 (β 1i (caspase-like)) was 0.976 µM and the IC50 [2] was 0.159 µM.
